Results: ChEMBL document CHEMBL1131773, “Synthesis and structure-activity relationships of new non-steroidal progesterone receptor ligands” (Bioorg Med Chem Lett, 1999)

target: T1, Progesterone receptor (Homo sapiens) (UniProt P06401); test: Relative Binding affinity(RBA) to human progesterone receptor(PR) compared to PF1092A; (RBA= IC50 of PF1092A/ IC50 of test compound at human PR)
T1 sequence (whole entry): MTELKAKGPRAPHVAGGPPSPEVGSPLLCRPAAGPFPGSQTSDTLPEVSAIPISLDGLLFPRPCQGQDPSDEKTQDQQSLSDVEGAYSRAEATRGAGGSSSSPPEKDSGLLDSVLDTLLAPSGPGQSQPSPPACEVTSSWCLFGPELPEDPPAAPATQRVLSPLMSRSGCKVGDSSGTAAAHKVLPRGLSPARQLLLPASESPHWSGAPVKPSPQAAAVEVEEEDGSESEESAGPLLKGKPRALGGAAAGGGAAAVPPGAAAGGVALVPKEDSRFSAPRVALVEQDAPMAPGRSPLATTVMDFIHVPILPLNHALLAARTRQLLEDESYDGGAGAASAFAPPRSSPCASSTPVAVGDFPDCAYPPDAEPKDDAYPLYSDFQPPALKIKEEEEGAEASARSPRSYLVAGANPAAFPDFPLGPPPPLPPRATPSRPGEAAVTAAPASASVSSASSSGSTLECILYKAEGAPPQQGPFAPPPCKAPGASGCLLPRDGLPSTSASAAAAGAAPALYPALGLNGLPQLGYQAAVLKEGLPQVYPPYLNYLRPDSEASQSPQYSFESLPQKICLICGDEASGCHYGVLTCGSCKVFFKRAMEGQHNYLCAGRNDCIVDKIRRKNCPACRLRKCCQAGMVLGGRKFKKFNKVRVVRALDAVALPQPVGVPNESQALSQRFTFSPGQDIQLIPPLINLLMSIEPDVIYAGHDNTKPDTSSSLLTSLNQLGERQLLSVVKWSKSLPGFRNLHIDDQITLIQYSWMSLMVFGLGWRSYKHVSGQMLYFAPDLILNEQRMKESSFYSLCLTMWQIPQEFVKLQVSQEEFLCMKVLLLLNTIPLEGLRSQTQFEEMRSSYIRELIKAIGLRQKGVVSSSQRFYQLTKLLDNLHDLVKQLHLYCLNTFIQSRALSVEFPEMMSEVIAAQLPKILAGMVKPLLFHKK

| SMILES | relative binding affinity (RBA) |
| --- | --- |
| CC(=O)O[C@H]1[C@H](C)C=C2C=C3OC(=O)C(C)=C3C[C@]2(C)[C@H]1C | 1.6 |
| CC(=O)O[C@H]1CC=C2C=C3OC(=O)C(C)=C3C[C@]2(C)[C@H]1C | 0.8 |
| CCC1=C2C[C@@]3(C)C(=CC[C@H](OC(C)=O)[C@@H]3C)C=C2OC1=O | 0.2 |
| CC(=O)O[C@H]1CC=C2C=C3OC(=O)C=C3C[C@]2(C)[C@H]1C | 1.2 |
| CC(=O)O[C@H]1CC=C2C=C3OC(=O)C(C)=C3[C@H](C)[C@]2(C)[C@H]1C | 0.8 |
| CO[C@H]1[C@@H](OC(C)=O)CC=C2C=C3OC(=O)C(C)=C3C[C@@]21C | 0.7 |
| CC(=O)O[C@H]1[C@@H](O)C=C2C=C3OC(=O)C(C)=C3C[C@]2(C)[C@H]1C | 1 |
| CC(=O)O[C@H]1CC=C2C=C3OC(=O)C(C)=C3C[C@]2(C)C1 | 0.08 |
| CC(=O)O[C@H]1CC=C2C(C)=C3OC(=O)C(C)=C3C[C@]2(C)[C@H]1C | 0.07 |
